# Laboratory results from patent publication US20220324803A1 (Teon Therapeutics, Inc., priority 2019, published 2022).
# Target: T1, human Prostanoid EP4 Receptor (EP4) (Homo sapiens, UniProt P35408)
# T1 construct: expressed in transfected cells; host or cells: HEK293 (G418 selection); membranes prepared by differential centrifugation
# Assay: Prostanoid EP4 binding assay (3H-prostaglandin E2 displacement, cell membranes)
# Conditions: HEK293 cell membranes with human EP4, 3H-prostaglandin E2, 24° C.
# Procedure: HEK293 cells transfected with human Prostanoid EP4 Receptor (EP4) are maintained in DMEM supplemented with L-Glutamine, 10% FBS and 300 μg/ml G418. Cells are harvested and membranes prepared by differential centrifugation, following lysis of the cells in the presence of protease inhibitors, for use in the receptor binding assay. EP4 binding assay is performed in 50 mM HEPES pH7.4, 5 mM MgCl2, 1 mM CaCl2) and 0.2% BSA. Testing compounds are diluted with DMSO to make 8-point 4-fold serial dilution. Cell membrane homogenates are incubated at 24° C. with ^3H-prostaglandin E2 in the absence or presence of the testing compound in assay buffer. Nonspecific binding (Low control: LC) and total binding (High control: HC) are determined in the presence or absence of saturated cold ligand Prostaglandin E2 (PGE2). Specific binding is calculated by subtracting nonspecific binding from total binding. When binding assays are completed, the reaction mixture is filtered rapidly under vacuum through glass fiber filters (GF/C, Packard) presoaked with 0.5% BSA for at least 0.5 hour at room temperature and then washed for 4 times with cold wash buffer (50 mM HEPES pH7.4, 500 mM NaCl, 0.1% BSA) using a 96-sample Perkin Elmer Filtermate Harvester (Unifilter, Packard). The filters are dried for 1 hour at 50 degrees then counted for radioactivity in a scintillation counter using Perkin Elmer Microscint 20 cocktail. ^3H trapped on filter is counted using Perkin Elmer MicroBeta2 Reader. Inhibition is calculated using following equation: % Inhibition=(1−(Assay well−Average_LC)/(Average_HC−Average_LC))×100%. The results are expressed as a percent inhibition of the control radioligand specific binding. Data are analyzed and IC50 is calculated using GraphPad Prism 5 and the model “log(inhibitor) vs. response—Variable slope”. The binding affinity of the compounds is determined by using the Cheng and Prusoff equation Ki=IC50/(1+[radioligand]/Kd).
# T1 sequence (P35408 whole entry): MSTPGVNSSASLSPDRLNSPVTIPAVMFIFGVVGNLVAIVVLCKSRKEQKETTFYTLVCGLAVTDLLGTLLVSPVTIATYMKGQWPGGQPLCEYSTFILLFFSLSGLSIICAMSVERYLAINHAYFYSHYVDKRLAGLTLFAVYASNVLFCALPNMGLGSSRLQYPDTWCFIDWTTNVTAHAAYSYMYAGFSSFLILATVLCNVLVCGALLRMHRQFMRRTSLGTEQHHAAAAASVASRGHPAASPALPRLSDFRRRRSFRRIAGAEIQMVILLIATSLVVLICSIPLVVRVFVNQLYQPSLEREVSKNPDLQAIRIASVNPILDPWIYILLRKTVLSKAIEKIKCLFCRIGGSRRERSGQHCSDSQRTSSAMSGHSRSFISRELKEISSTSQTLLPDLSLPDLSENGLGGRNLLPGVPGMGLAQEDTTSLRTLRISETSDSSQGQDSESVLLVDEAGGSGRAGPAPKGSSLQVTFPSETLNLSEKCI
row,SMILES,Ki [nM]
1,"C[C@H](NC(=O)c1ncn2cccc(Cc3ccc(C(F)(F)F)cc3)c12)c1ccc(C(=O)O)cc1 [Compound 5, 4-[(1S)-1-[[8-[[4-(trifluoromethyl)phenyl]methyl]imidazo[1,5-a]pyridine-1-carbonyl]amino]ethyl]benzoic acid]",100 to 499
2,"O=C(NC1CC2(C1)CC(C(=O)O)C2)c1cn(CCF)c2nccc(Cc3ccc(C(F)(F)F)cc3)c12 (stereo not drawn) [Compound 48, trans-2-[[1-(2-fluoroethyl)-4-[[4-(trifluoromethyl)phenyl]methyl]-pyrrolo[2,3-b]pyridine-3-carbonyl]amino]spiro[3.3]heptane-6-carboxylic acid]",< 100
3,"CC(C)Cn1nc2cccc(Cc3ccc(C(F)(F)F)cc3)c2c1C(=O)N[C@@H](C)c1ccc(C(=O)O)cc1 [Compound 30, 4-[(1S)-1-[[2-isobutyl-4-[[4-(trifluoromethyl)phenyl]methyl]indazole-3-carbonyl]amino]ethyl]benzoic acid]",100 to 499
4,"CC(C(=O)O)c1ccc(NC(=O)c2cnn3cccc(Cc4ccc(C(F)(F)F)cc4)c23)cc1 (centres unmarked) [Compound 49, 2-[4-[[4-[[4-(trifluoromethyl)phenyl]methyl]pyrazolo[1,5-a]pyridine-3-carbonyl]amino]phenyl]propanoic acid]",100 to 499
5,"CC(C)n1nc(C(=O)NC23CC(CC(=O)O)(C2)C3)c2c(Cc3ccc(C(F)(F)F)cc3)cccc21 [Compound 22, 2-[3-[[1-isopropyl-4-[[4-(trifluoromethyl)phenyl]methyl]indazole-3-carbonyl]amino]-1-bicyclo[1.1.1]pentanyl]acetic acid]",> 500
6,"O=C(O)C[C@H]1CC[C@H](NC(=O)c2cnn3cccc(Cc4ccc(C(F)(F)F)cc4)c23)CC1 [Compound 38, 2-((1r,4r)-4-(4-(4-(trifluoromethyl)benzyl)pyrazolo[1,5-a]pyridine-3-carboxamido)cyclohexyl)acetic acid]",< 100
7,"O=C(Nc1ccc(C2(C(=O)O)CC2)cc1)c1cnn2cccc(Cc3ccc(C(F)(F)F)cc3)c12 [Compound 31, 1-[4-[[4-[[4-(trifluoromethyl)phenyl]methyl]pyrazolo[1,5-a]pyridine-3-carbonyl]amino]phenyl]cyclopropanecarboxylic acid]",> 500
8,"CCn1cc(C(=O)NC2CC3(C2)CC(C(=O)O)C3)c2c(Cc3ccc(C(F)(F)F)cc3)ccnc21 (stereo not drawn) [Compound 45, trans-2-[[1-ethyl-4-[[4-(trifluoromethyl)phenyl]methyl]-pyrrolo[2,3-b]pyridine-3-carbonyl]amino]spiro[3.3]heptane-6-carboxylic acid]",< 100
9,"CCn1cc(C(=O)NC23CC(CC(=O)O)(C2)C3)c2c(Cc3ccc(C(F)(F)F)cc3)cccc21 [Compound 51, 2-[3-[[1-ethyl-4-[[4-(trifluoromethyl)phenyl]methyl]indole-3-carbonyl]amino]-1-bicyclo[1.1.1]pentanyl]acetic acid]",< 100
10,"CCn1nc(C(=O)N[C@H]2CC3(C2)C[C@H](C(=O)O)C3)c2c(Cc3ccc(C(F)(F)F)cc3)cccc21 (single isomer, unassigned) [Compound 11B, trans-2-[[1-ethyl-4-[[4-(trifluoromethyl)phenyl]methyl]indazole-3-carbonyl]amino]spiro[3.3]heptane-6-carboxylic acid]",< 100

# More lines, now with the values ahead:
row,Ki [nM],SMILES
1,< 100,"CC(C)n1nc(C(=O)N[C@H]2CC3(C2)C[C@H](C(=O)O)C3)c2c(Cc3ccc(C(F)(F)F)cc3)cccc21 (stereo partly drawn) [Compound 21, trans-2-[[1-isopropyl-4-[[4-(trifluoromethyl)phenyl]methyl]indazole-3-carbonyl]amino]spiro[3.3]heptane-6-carboxylic acid]"
2,< 100,"O=C(N[C@H]1CC2(C1)C[C@H](C(=O)O)C2)c1ncn2cccc(Cc3ccc(C(F)(F)F)cc3)c12 (single isomer, unassigned) [Compound 6B, trans-2-[[8-[[4-(trifluoromethyl)phenyl]methyl]imidazo[1,5-a]pyridine-1-carbonyl]amino]spiro[3.3]heptane-6-carboxylic acid]"
3,< 100,"O=C(N[C@H]1CC[C@@H](C(=O)O)C1)c1cnn2cccc(Cc3ccc(C(F)(F)F)cc3)c12 [Compound 39, (1R,3S)-3-[[4-[[4-(trifluoromethyl)phenyl]methyl]pyrazolo[1,5-a]pyridine-3-carbonyl]amino]cyclopentanecarboxylic acid]"
4,< 100,"CCn1cc(C(=O)N[C@H]2CC3(C2)C[C@H](C(=O)O)C3)c2c(Cc3ccc(C(F)(F)F)cc3)cccc21 (stereo partly drawn) [Compound 41, trans-2-[[1-ethyl-4-[[4-(trifluoromethyl)phenyl]methyl]indole-3-carbonyl]amino]spiro[3.3]heptane-6-carboxylic acid]"
5,< 100,"CC(C)Cn1nc(C(=O)NC23CC(CC(=O)O)(C2)C3)c2c(Cc3ccc(C(F)(F)F)cc3)cccc21 [Compound 25, 2-[3-[[1-isobutyl-4-[[4-(trifluoromethyl)phenyl]methyl]indazole-3-carbonyl]amino]-1-bicyclo[1.1.1]pentanyl]acetic acid]"
6,< 100,"O=C(NC[C@H]1CC[C@H](C(=O)O)CC1)c1cnn2cccc(Cc3ccc(C(F)(F)F)cc3)c12 [Compound 40, (1r,4r)-4-[[[4-[[4-(trifluoromethyl)phenyl]methyl]pyrazolo[1,5-a]pyridine-3-carbonyl]amino]methyl]cyclohexanecarboxylic acid]"
7,< 100,"CCn1cc(C(=O)N[C@@H](C)c2ccc(C(=O)O)cc2)c2c(Cc3ccc(C(F)(F)F)cc3)ccnc21 [Compound 46, 4-[(1S)-1-[[1-ethyl-4-[[4-(trifluoromethyl)phenyl]methyl]-pyrrolo[2,3-b]pyridine-3-carbonyl]amino]ethyl]benzoic acid]"
8,< 100,"O=C(N[C@H]1CC2(C1)C[C@H](C(=O)O)C2)c1cn(CCF)c2cccc(Cc3ccc(C(F)(F)F)cc3)c12 (stereo partly drawn) [Compound 44, trans-2-[[1-(2-fluoroethyl)-4-[[4-(trifluoromethyl)phenyl]methyl]-indole-3-carbonyl]amino]spiro[3.3]heptane-6-carboxylic acid]"
9,< 100,"CC(C)n1nc(C(=O)N[C@@H](C)c2ccc(C(=O)O)cc2)c2c(Cc3ccc(C(F)(F)F)cc3)cccc21 [Compound 20, 4-[(1S)-1-[[1-isopropyl-4-[[4-(trifluoromethyl)phenyl]methyl]indazole-3-carbonyl]amino]ethyl]benzoic acid]"
10,< 100,"C[C@H](NC(=O)c1cn(CCF)c2cccc(Cc3ccc(C(F)(F)F)cc3)c12)c1ccc(C(=O)O)cc1 [Compound 43, 4-[(1S)-1-[[1-(2-fluoroethyl)-4-[[4-(trifluoromethyl)phenyl]methyl]indole-3-carbonyl]amino]ethyl]benzoic acid]"
